Molecules are shown by their SMILES. Calls of active or inactive are those of the source. The rule behind the calls is not given here.

This assay has as its system CCHF-vOTU. In words: PubChem AID 743476. Conditions: Recombinant CCHFV vOTU, PEP-AMC fluorescence cleavage, with PEP-AMC substrate, stronger effect = higher value.

For orientation: inhibition means the relative decrease from the control value, in per cent. As for `O=C(NC1=CC(=O)c2ccccc2C1=O)c1ccccc1`, the inhibition (Assay 1, at 3.85 µM) was 5.25% (inactive); the inhibition (Assay 2, at 3.85 µM) is 9.67% (inactive); the inhibition (Assay 3, at 7.7 µM) was 16.4% (inactive).
`O=C(COC(=O)c1ccc([N+](=O)[O-])s1)NCc1ccc(F)cc1`: the inhibition is, setting by setting: (Assay 1, at 8.08 µM) -23.4% (inactive); (Assay 2, at 8.08 µM) 7.84% (inactive); (Assay 3, at 2.56 µM) 11.4% (inactive).
Turning to `COC(CNC(=O)c1ccc2c3c(onc13)-c1ccccc1C2=O)OC`, the inhibition (Assay 1, at 3.49 µM) is 16.6% (inactive); the inhibition (Assay 2, at 3.49 µM) is 12.4% (inactive); the inhibition (Assay 3, at 6.98 µM) is 35.5%.
Consider `COc1cc(C(=O)c2nccc3cc(OC)c(OC)cc23)c([N+](=O)[O-])cc1OC`, for which the inhibition runs as follows: (Assay 1, at 1.05 µM) 6.05% (inactive); (Assay 2, at 1.05 µM) 15% (inactive); (Assay 3, at 2.1 µM) 17.8% (inactive).
Turning to `CC1CCCC(NC(=O)COC(=O)c2ccc([N+](=O)[O-])s2)C1C` (configuration not stated), the inhibition is 37.2% (Assay 1, at 9.22 µM); 8.38% (inactive) (Assay 2, at 9.22 µM); 13.5% (inactive) (Assay 3, at 18.44 µM).
Turning to `O=C(OCc1nnc(-c2ccccc2)o1)c1ccc([N+](=O)[O-])s1`, the inhibition reads like this: (Assay 1, at 7.52 µM) 3.79% (inactive); (Assay 2, at 7.52 µM) -3.16% (inactive); (Assay 3, at 15.04 µM) 25%.
For `COc1ccccc1NC(=O)COC(=O)c1ccc([N+](=O)[O-])s1`, the inhibition was -1.05% (inactive) (Assay 1, at 9.94 µM); 9.34% (inactive) (Assay 2, at 9.94 µM); 20% (Assay 3, at 19.88 µM).
In the case of `O=C1Cc2ccccc2C(=O)N1Cc1ccccc1`, the inhibition reads like this: (Assay 1, at 1.28 µM) 38.7%; (Assay 2, at 1.28 µM) 50.3%.
As to `CCc1cc[n+](C2=C(NS(=O)(=O)c3cccs3)C(=O)c3ccccc3C2=O)cc1`, the inhibition is 13.7% (inactive) (Assay 1, at 4.39 µM); 18.6% (inactive) (Assay 2, at 4.39 µM); 37.9% (Assay 3, at 8.78 µM).
In the case of `NS(=O)(=O)c1ccc(NC(=O)COC(=O)c2ccc([N+](=O)[O-])s2)cc1`, the inhibition reads like this: (Assay 1, at 8.31 µM) 70.6%; (Assay 2, at 8.31 µM) 24.6%; (Assay 3, at 16.62 µM) 23.1%.
Take `O=S(=O)(Nc1cc2nc3ccccc3nc2n1Cc1ccccc1)c1ccc(Cl)cc1`: the inhibition is, setting by setting: (Assay 1, at 2.57 µM) 72.3%; (Assay 2, at 2.57 µM) -112% (inactive); (Assay 3, at 5.14 µM) 47.9% (inactive).
Take `O=C(O)CSc1cc(NS(=O)(=O)c2cccc([N+](=O)[O-])c2)c2ccccc2c1O`: the inhibition is -7.65% (inactive) (Assay 1, at 2.44 µM); 5.22% (inactive) (Assay 2, at 2.44 µM); 13.1% (inactive) (Assay 3, at 4.88 µM).
As to `O=C(COC(=O)c1ccc([N+](=O)[O-])s1)Nc1ccccc1`, the inhibition was 8.51% (inactive) (Assay 2, at 10.31 µM) and 4.9% (inactive) (Assay 3, at 20.62 µM).
For the compound `CN(C1=C(NC(=O)c2ccccc2)C(=O)c2ccccc2C1=O)C1CCS(=O)(=O)C1` (configuration not stated), the inhibition was 54.2% (Assay 1, at 2.43 µM) and 22.7% (Assay 2, at 2.43 µM).
Turning to `O=C1Cc2ccccc2C(=O)N1CCc1ccccc1`, the inhibition runs as follows: (Assay 1, at 1.14 µM) 12.7% (inactive); (Assay 2, at 1.14 µM) 57.5%.
Consider `CC1COCC(C)N1C1=C(Cl)C(=O)c2ccccc2C1=O` (configuration not stated), for which the inhibition reads like this: (Assay 1, at 5.07 µM) 0.67% (inactive); (Assay 2, at 5.07 µM) 14% (inactive); (Assay 3, at 10.14 µM) 17.6% (inactive).
As to `COc1cc(NCCCC(C)N)c2ncccc2c1` (configuration not stated), the inhibition was 25.6% (Assay 1, at 2.52 µM); 0.7% (inactive) (Assay 2, at 2.52 µM); -1.2% (inactive) (Assay 3, at 5.04 µM).
For the compound `O=C(O)CSc1cc(NS(=O)(=O)c2ccc(Cl)cc2)c2ccccc2c1O`, the inhibition was 6.76% (inactive) (Assay 1, at 5 µM); 8.14% (inactive) (Assay 2, at 5 µM); 7.8% (inactive) (Assay 3, at 10 µM).
Regarding `COC1=C(N)C(=O)c2nc(C)ccc2C1=O`, the inhibition was 16.7% (inactive) (Assay 1, at 1.37 µM) and 50.9% (Assay 2, at 1.37 µM).
Regarding `CCOC(=O)N=Nc1c2ccccc2c2nc3no[nH]c3nc12`, the inhibition is, setting by setting: (Assay 1, at 2.35 µM) 8.81% (inactive); (Assay 2, at 2.35 µM) 13.6% (inactive); (Assay 3, at 4.7 µM) 25.3%.
On to `O=C1C=C(Nc2ccccc2)c2ccccc2C1=O`, for which the inhibition is, setting by setting: (Assay 1, at 6.87 µM) 22.4%; (Assay 2, at 6.87 µM) 52.9%.

The values above are taken from PubChem BioAssay AID743476 (The Scripps Research Institute Molecular Screening Center, 2014).
